In ChEMBL document CHEMBL4265870, “Synthesis and biological evaluation of a new series of benzimidazole derivatives as antimicrobial, antiquorum-sensing and antitumor agents” (Eur J Med Chem, 2017):
In brackets after ≈: the same amount, converted by molar mass. Activity calls are given as the source filed them. The calls are words filed in the database; no cut-off is given here.

What was measured:
Escherichia coli = test: Antimicrobial activity against Escherichia coli by two fold serial dilution method; format: functional
Bacillus cereus = test: Antimicrobial activity against Bacillus cereus by two fold serial dilution method; format: functional
Staphylococcus aureus = test: Antimicrobial activity against Staphylococcus aureus by two fold serial dilution method; format: functional
Aspergillus fumigatus = test: Antimicrobial activity against Aspergillus fumigatus 293 by two fold serial dilution method; format: functional; conditions: Af293
[1] = tested on: Chromobacterium violaceum; test: Antiquorum-sensing activity against Chromobacterium violaceum ATCC 12472 assessed as reduction in violacein production at 5000 ug/ml a=; format: functional
HepG2 = test: Cytotoxicity in human HepG2 cells assessed as reduction in cell viability by MTT assay; format: functional, cell-based
HCT-116 = test: Cytotoxicity in human HCT116 cells assessed as reduction in cell viability by MTT assay; format: functional, cell-based
MCF7 = test: Cytotoxicity in human MCF7 cells assessed as reduction in cell viability by MTT assay; format: functional, cell-based
Ehrlich [2] = test: Antitumor activity against mouse EAC cells implanted in Swiss mouse assessed as mouse survival time at 0.5 mg/mouse dosed for 9 days starting 1 day after tumor cell implantation (reference value: 14.5 days); format: functional
Ehrlich [3] = test: Antitumor activity against mouse EAC cells implanted in Swiss mouse assessed as increase in life span at 0.5 mg/mouse dosed for 9 days starting 1 day after tumor cell implantation relative to untreated control; format: functional
Ehrlich [4] = test: Antitumor activity against mouse EAC cells implanted in Swiss mouse assessed as tumor volume at 0.5 mg/mouse dosed for 9 days starting 1 day after tumor cell implantation (reference value: 9.85 ml); format: functional
Ehrlich [5] = test: Antitumor activity against mouse EAC cells implanted in Swiss mouse assessed as viable cell count per 100 ul at 0.5 mg/mouse dosed for 9 days starting 1 day after tumor cell implantation (reference value: 83.2 x 10^6/100 ul); format: functional
Mus musculus [6] = test: Toxicity in mouse EAC cells implanted Swiss mouse assessed as hemoglobin level at 0.5 mg/mouse dosed for 9 days starting 1 day after tumor cell implantation (reference value: 8.15 g/dl); format: organism-based; conditions: in vivo
Mus musculus [7] = test: Toxicity in mouse EAC cells implanted Swiss mouse assessed as RBC count at 0.5 mg/mouse dosed for 9 days starting 1 day after tumor cell implantation (reference value: 3.69 10^6/mm3)); format: organism-based; conditions: in vivo
Mus musculus [8] = test: Toxicity in mouse EAC cells implanted Swiss mouse assessed as WBC count at 0.5 mg/mouse dosed for 9 days starting 1 day after tumor cell implantation (reference value: 23.96 10^3/mm3)); format: organism-based; conditions: in vivo
WI-38 = test: Cytotoxicity in human WI38 cells assessed as reduction in cell viability by MTT assay; format: cell-based
Calf thymus DNA = test: Binding affinity to calf thymus DNA by TLC plate based assay; format: nucleic-acid assay; conditions: Bos taurus

Row | Structure (SMILES) | MIC (Escherichia coli) [µg/mL] | MIC (Bacillus cereus) [µg/mL] | MIC (Staphylococcus aureus) [µg/mL] | MIC (Aspergillus fumigatus) [µg/mL] | diameter of the inhibition zone (DIZ) [1] [mm] | IC50 (HepG2) [µM] | IC50 (HCT-116) [µM] | IC50 (MCF7) [µM] | MST (Ehrlich [2]) [days] | ILS (Ehrlich [3]) [%] | Activity (Ehrlich [4]) [mL] | Activity (Ehrlich [5]) [×10⁶ No_unit] | Activity (Mus musculus [6]) [g/dL] | Activity (Mus musculus [7]) [×10⁶ /mm3] | Activity (Mus musculus [8]) [×10³ /mm3] | IC50 (WI-38) [µM] | Activity (Calf thymus DNA)
1 | O=[N+]([O-])c1ccc2[nH]c(CNc3nc(-c4ccccc4)cs3)nc2c1 | > 2500 | > 2500 | > 2500 | 1250 (≈ 3.56 mM) | 6 | 226 | 198 | 254 | – | – | – | – | – | – | – | – | –
2 | O=[N+]([O-])c1ccc2[nH]c(CNc3nc4ccc(F)cc4s3)nc2c1 | > 2500 | > 2500 | > 2500 | 1250 (≈ 3.64 mM) | 6 | 263 | 253 | 291 | – | – | – | – | – | – | – | – | –
3 | O=c1[nH]cc(F)c(=O)[nH]1 [FLUOROURACIL] | – | – | – | – | – | 61 | 41 | 41.5 | 49 | 237.93 | 1.6 | 20.17 | 12.96 | 5.21 | 8.86 | 51 | –
4 | CC1=NN(Cc2nc3ccccc3[nH]2)C(=O)C1 | > 2500 | 1250 (≈ 5.48 mM) | 156 (≈ 0.685 mM) | 312 (≈ 1.37 mM) | 4 | 54 | 42 | 62 | 31.5 | 110.34 | 4.16 | 45.38 | 11.47 | 4.55 | 11.26 | 246 | Active
5 | COc1ccc2c(c1)CCC/C2=N\NCc1nc2cc([N+](=O)[O-])ccc2[nH]1 | > 2500 | > 2500 | > 2500 | 2500 (≈ 6.84 mM) | <2 | 96 | 45 | 78 | – | – | – | – | – | – | – | – | –
6 | COc1ccc2c(c1)CCC/C2=N\NCc1nc2ccccc2[nH]1 | > 2500 | > 2500 | 1250 (≈ 3.9 mM) | > 2500 | <2 | 80 | 41 | 63 | – | – | – | – | – | – | – | – | –
7 | O=[N+]([O-])c1ccc2[nH]c(CN3CCN(c4ccc(F)cc4)CC3)nc2c1 | 2500 (≈ 7.03 mM) | 2500 (≈ 7.03 mM) | 1250 (≈ 3.52 mM) | 2500 (≈ 7.03 mM) | <2 | 22 | 14 | 15 | 44.5 | 206.98 | 2.32 | 23.54 | 13.15 | 5.36 | 7.34 | 298 | Active
8 | CC1(C)S[C@@H]2[C@H](NC(=O)[C@H](N)c3ccccc3)C(=O)N2[C@H]1C(=O)O [AMPICILLIN] | 19.5 (≈ 0.0559 mM) | 1250 (≈ 3.58 mM) | 312 (≈ 0.894 mM) | – | – | – | – | – | – | – | – | – | – | – | – | – | –
9 | Fc1ccc2nc(NCc3nc4ccccc4[nH]3)sc2c1 | > 2500 | > 2500 | 156 (≈ 0.524 mM) | 1250 (≈ 4.19 mM) | 11 | 233 | 238 | 242 | – | – | – | – | – | – | – | – | Active
10 | Oc1cc(O)c2c(c1)O[C@H](c1ccc(O)c(O)c1)[C@@H](O)C2 [CIANIDANOL] | – | – | – | – | 2 | – | – | – | – | – | – | – | – | – | – | – | –
11 | CC[n+]1c(-c2ccccc2)c2cc(N)ccc2c2ccc(N)cc21 | – | – | – | – | – | – | – | – | – | – | – | – | – | – | – | – | Active
12 | Cc1c(NCc2nc3cc([N+](=O)[O-])ccc3[nH]2)c(=O)n(-c2ccccc2)n1C | 2500 (≈ 6.61 mM) | 1250 (≈ 3.3 mM) | 625 (≈ 1.65 mM) | 2500 (≈ 6.61 mM) | <2 | 93 | 44 | 78 | – | – | – | – | – | – | – | – | –
13 | NS(=O)(=O)c1nnc(NCc2nc3cc([N+](=O)[O-])ccc3[nH]2)s1 | > 2500 | > 2500 | > 2500 | > 2500 | <2 | 184 | 176 | 230 | – | – | – | – | – | – | – | – | –
14 | CCOC(=O)c1c(NCc2nc3ccccc3[nH]2)sc2c1CCCCC2 | > 2500 | > 2500 | > 2500 | > 2500 | 3 | 43 | 31 | 40 | 39 | 168.9 | 3.23 | 29.65 | 12.13 | 4.89 | 9.11 | 58 | inactive
15 | OC(Cn1cncn1)(Cn1cncn1)c1ccc(F)cc1F [FLUCONAZOLE] | – | – | – | > 2500 | – | – | – | – | – | – | – | – | – | – | – | – | –
16 | Cc1c(NCc2nc3ccccc3[nH]2)c(=O)n(-c2ccccc2)n1C | 2500 (≈ 7.5 mM) | 1250 (≈ 3.75 mM) | 312 (≈ 0.937 mM) | 625 (≈ 1.87 mM) | 6 | 63 | 38 | 53 | – | – | – | – | – | – | – | – | Active
17 | O=[N+]([O-])c1ccc2ncccc2c1NCc1nc2ccccc2[nH]1 | 625 (≈ 1.96 mM) | 156 (≈ 0.489 mM) | 1250 (≈ 3.91 mM) | 1250 (≈ 3.91 mM) | 8 | 259 | 204 | 237 | – | – | – | – | – | – | – | – | Active
18 | O=[N+]([O-])c1ccc2[nH]c(CNc3c([N+](=O)[O-])ccc4ncccc34)nc2c1 | 1250 (≈ 3.43 mM) | 312 (≈ 0.858 mM) | 2500 (≈ 6.86 mM) | 2500 (≈ 6.86 mM) | 4 | 265 | 256 | 274 | – | – | – | – | – | – | – | – | Active
19 | CC1=NN(Cc2nc3cc([N+](=O)[O-])ccc3[nH]2)C(=O)C1 | > 2500 | 1250 (≈ 4.57 mM) | 2500 (≈ 9.15 mM) | 625 (≈ 2.29 mM) | 3 | 265 | 200 | 281 | – | – | – | – | – | – | – | – | –
20 | NS(=O)(=O)c1nnc(NCc2nc3ccccc3[nH]2)s1 | 625 (≈ 2.01 mM) | > 2500 | 625 (≈ 2.01 mM) | > 2500 | <2 | 162 | 156 | 228 | – | – | – | – | – | – | – | – | Active
